According to patent US8349793B2, “Method for treatment of inflammatory disease and disorder” (Heal0r, Ltd., priority 2010, dated 2013):
Where no end group is shown, it is not given here. The star is where a group is joined. Palmitoyl = CCCCCCCCCCCCCCCC(=O)*; Myristoyl = CCCCCCCCCCCCCC(=O)*

Tests used:
keratinocytes [1] = assay: Keratinocyte migration; format: cell-based; set-up: concentration or dose not given beside the values
keratinocytes [2] = assay: Keratinocyte differentiation markers (Filaggrin, Loricrin, Keratin 1); format: cell-based, C57BL/6J mice; conditions: concentration: EPIP1 and DAP1 1 μg/ml, 10 μg/ml, EPIP2 10 μg/ml
Procedure: Keratinocytes derived from C57BL/6J mice were incubated in medium containing Ca^2+ to induce keratinocytes differentiation. Cells were then incubated in the presence of […] (1 μg/ml). Cells were harvested, run on SDS PAGE gel and immunoblotted using anti-Filaggrin (Fil), anti Loricrin (Lor) and anti-Keratin 1 (K1) antibody.
(§1) FIGS. 7 and 8 presents a summary of expression data in keratinocytes utilizing various peptide PKCα inhibitors: MPDY-1 (SEQ ID NO: 21) as well as data for the peptide PKCα inhibitors AIP-1 (SEQ ID NO: 3), AIP-2 (SEQ ID NO: 20), AWOT-1 (SEQ ID NO: 5) and PPDY-1 (SEQ ID NO: 22). […] FIG. 8 presents a summary of expression data in keratinocytes for various peptide PKCα inhibitors.

keratinocytes [3] = assay: Keratinocyte proliferation in vitro (PCNA); format: cell-based, Balb/c mice; conditions: concentration not given
Procedure: Primary murine keratinocytes from 2 days old Balb/c mice were grown for 5 days to reach full confluence in 0.05 mM Ca^2+ MEM medium. HO/02/10 treatment (10^−6M and 10^−5M) was applied 6 hours prior to induction of differentiation. Cells were harvested, run on SDS PAGE gel and immunoblotted using anti-PCNA antibodies. In addition, C57Black mice, 8-10 weeks of age were subjected to full thickness wounding in the upper back area to induce epidermis remodeling and differentiation. Following the wounding, mice were treated daily with HO/02/10 (ranged 40-4000 mg/kg/day) for 7 days. At the termination point, mice were euthanized and upper back skin samples were fixed in 4% paraformaldehyde solution, following paraffin embedding and slide preparation. Skin samples were then subjected to immunohistochemical staining utilizing PCNA antibody. (n=18).
as §1

keratinocytes [4] = assay: Cytokine secretion in keratinocytes stimulated by LPS, TNFα or IL-17 (ELISA); format: cell-based, BALB/C mice; conditions: for cytokine secretion from LPS and TNFα activated keratinocytes: FIGS. 19 to 23; for cytokine secretion from IL-17A activated keratinocytes: FIGS. 24 to 27; for cytokine secretion in keratinocytes: stimulated by LPS, TNFα, or IL-17
Procedure: To determine their effects, keratinocytes were derived from newborn BALB/C mice skin. The cells were incubated for 5 days in 24 wells plate. Cells were then incubated with PBS−/− as control or stimulated by LPS, TNFα, or IL-17. PKCα inhibitors were added as indicated. Medium containing secreted cytokines was collected after 48 hr and analyzed using ELISA. FIG. 40 is a tabular summary of cytokine secretion.
PKCδactivators were also shown to have an anti-inflammatory effect on keratinocytes and splenocytes. Keratinocytes were derived from newborn BALB/C mice skin. The cells were incubated for 5 days in 24 wells plate. Cells were then incubated with PBS−/− as control or stimulated by LPS or TNFα. The PKCδ inhibitor DAP-1 (SEQ ID NO: 16) was added. Medium containing secreted cytokines was collected after 48 hr and analyzed using ELISA. FIG. 35 is a tabular summary showing cytokine secretion in splenocytes stimulated with LPS. […] Cytokine secretion in keratinocytes stimulated by TNFα: following stimulation with 35 ng/ml TNFα. And treatment with 10 μg/ml of DAP-1, the cytokine levels of IL-1α, G-CSF, MIP-2 and KC were reduced by 95%, 70%, 20% and 30# respectively.
PKCε inhibitors were also shown to have an anti-inflammatory effect on keratinocytes. Keratinocytes were derived from newborn BALB/C mice skin. The cells were incubated for 5 days in 24 wells plate. Cells were then incubated with PBS−/− as control or stimulated by LPS or TNFα. The PKCεinhibitors EPIP-1 (SEQ ID NO: 20), EPIP-2 (SEQ ID NO: 21), or EPIP-4 (SEQ ID NO: 23) were added. Medium containing secreted cytokines was collected after 48 hr and analyzed using ELISA. FIGS. 36-39 show the results for secretion of specific cytokines while Table 8 summarizes cytokine secretion for the various PKCε inhibitors: […]

splenocytes = assay: Cytokine secretion in splenocytes stimulated with LPS or TNFα (ELISA); format: cell-based, B6 mice
Excerpt: Inhibitory effect on activated splenocytes: Splenocytes were derived from B6 mice. […] Medium containing secreted cytokines was collected after 48 hr and analyzed using ELISA.

[5] = LPS 1 [μg/ml], peptide [10 μg/ml], 48 hr
[6] = TNF [35 ng/ml], peptide [10 μg/ml], 48 hr
[7] = keratinocytes, LPS (1 μg/ml) (EPIP4: printed 1 mg/ml), peptide concentration not given
[8] = keratinocytes, TNFa stim (35 ng/ml), 1 μg/ml of peptide (given for EPIP1, EPIP2, not for EPIP4), reduction printed with or without minus sign
[9] = Keratinocytes, Induction: TNFα (35 ng/ml), peptide (10 μg/ml)
[10] = Splenocytes, Induction: LPS (1 μg/ml) (given for DAP1 only), peptide (10 μg/ml)
[11] = LPS 1 [μg/ml], peptide [1 g/ml], 48 hr
[12] = TNF [35 ng/ml], peptide [1 g/ml], 48 hr
[13] = TNFα 25 ng/ml, peptide 1 μg/ml, 48 hr
[14] = TNFα 25 ng/ml, peptide 10 μg/ml, 48 hr
[15] = keratinocytes, 35 ng/ml TNFα, 10 μg/ml of DAP-1
[16] = keratinocytes, upon LPS and TNFa activation

EAVSLKPT [EPIP-1]
Migration, Induces (keratinocytes [1]): (200%) | Differentiation markers: granular differentiation (keratinocytes [2]): Reduces granular | Differentiation markers: spainous differentiation (keratinocytes [2]): Reduces granular | Proliferation markers (PCNA) (keratinocytes [3]): Induces | G-CSF secretion (change) (keratinocytes [4]; [5]): −70% | IL-6 secretion (change) (keratinocytes [4]; [5]): −55% | IP-10 secretion (change) (keratinocytes [4]; [5]): −60% | KC secretion (change) (keratinocytes [4]; [5]): −100% | G-CSF secretion (change) (keratinocytes [4]; [6]): −85% | IL-6 secretion (change) (keratinocytes [4]; [6]): −95% | IP-10 secretion (change) (keratinocytes [4]; [6]): (−45%) | G-CSF secretion (change) (keratinocytes [4]; [7]): −70% | IL-6 secretion (change) (keratinocytes [4]; [7]): −55% | IP-10 secretion (change) (keratinocytes [4]; [7]): −60% | KC secretion (change) (keratinocytes [4]; [7]): −100% | Reduces Chemokines IP 10 (keratinocytes [4]; [8]): Chemokines IP 10 (45%) | Reduces proinflammatory cytokines IL-6 (keratinocytes [4]; [8]): 95% | Reduces systemic cytokines G-SCF (keratinocytes [4]; [8]): −85%

FARKGALRQ [AWOT]
cytokine secretion from LPS and TNFα activated keratinocytes (keratinocytes [4]): decrease | cytokine secretion from IL-17A activated keratinocytes (keratinocytes [4]): decrease | cytokine secretion in keratinocytes (keratinocytes [4]; 48 hr): effective in decreasing cytokine secretion

HFEDWIDHFEDWID [DAP-3]
Migration, Induces (keratinocytes [1]): (200%) | Differentiation markers: granular differentiation (keratinocytes [2]): induces | Proliferation markers (PCNA) (keratinocytes [3]): induces | Reduces Chemokines: KC (keratinocytes [4]; [9]): KC (25%), | Reduces proinflamatory cytokine: IL-1a (keratinocytes [4]; [9]): (50%) | Reduces proinflamatory cytokine: IL-6 (keratinocytes [4]; [9]): (45%) and IL-1a | Reduces systemic cytokine G-SCF (keratinocytes [4]; [9]): SCF (25%), | Reduces systemic cytokine GM-CSF (keratinocytes [4]; [9]): SCF (25%), | Reduces Chemokines: MIP2 (splenocytes; Splenocytes, DAP3 (10 μg/ml)): MIP2 (25%) | reduces proinflamatory cytokine: IL-1α (splenocytes; [10]): IL-1α (45%), | reduces systemic cytokine: G-SCF (splenocytes; [10]): G-SCF (25%),

LEPEAAAAAAGK [EPIP-4]
Migration, Induces (keratinocytes [1]): (200%) | Differentiation markers: granular differentiation (keratinocytes [2]): No influence | Differentiation markers: spainous differentiation (keratinocytes [2]): reduces spainous | Proliferation markers (PCNA) (keratinocytes [3]): Induces | G-CSF secretion (change) (keratinocytes [4]; [11]): −75% | IL-6 secretion (change) (keratinocytes [4]; [11]): −55% | IP-10 secretion (change) (keratinocytes [4]; [11]): −60% | KC secretion (change) (keratinocytes [4]; [11]): −100% | G-CSF secretion (change) (keratinocytes [4]; [12]): IL-6 (−100%), G-CSF (−100%), IP-10 | IL-6 secretion (change) (keratinocytes [4]; [12]): IL-6 (−100%), G-CSF (−100%), IP-10 | IP-10 secretion (change) (keratinocytes [4]; [12]): (−80%) | IL-6 secretion (change) (keratinocytes [4]; [7]): Reduces proinflammatory IL-6 (−55%), | IP-10 secretion (change) (keratinocytes [4]; [7]): −60% | KC secretion (change) (keratinocytes [4]; [7]): −100% | Reduces Chemokines IP 10 (keratinocytes [4]; [8]): Chemokines IP 10 (−80%) | Reduces proinflammatory cytokines IL-6 (keratinocytes [4]; [8]): proinflammatory cytokines IL-6(−100%), | G-CSF (% reduction in secretion) (splenocytes; [13]): 45% | IFN-γ (% reduction in secretion) (splenocytes; [13]): 25% | IL-1a (% reduction in secretion) (splenocytes; [13]): 10% | IL-6 (% reduction in secretion) (splenocytes; [13]): 15% | IL-10 (% reduction in secretion) (splenocytes; [13]): 30% | IL-17 (% reduction in secretion) (splenocytes; [13]): 85% | G-CSF (% reduction in secretion) (splenocytes; [14]): 20% | IFN-γ (% reduction in secretion) (splenocytes; [14]): 55% | IL-10 (% reduction in secretion) (splenocytes; [14]): 10% | IL-17 (% reduction in secretion) (splenocytes; [14]): 90% | IP-10 (% reduction in secretion) (splenocytes; [14]): 15%

MRAAEAAAAEPM [DAP-1]
Migration, Induces (keratinocytes [1]): (200%) | Differentiation markers: granular differentiation (keratinocytes [2]): induces | Proliferation markers (PCNA) (keratinocytes [3]): Reduces | Reduces Chemokines: KC (keratinocytes [4]; [9]): KC (32%), MIP2 | Reduces Chemokines: MIP2 (keratinocytes [4]; [9]): (30%) | Reduces proinflamatory cytokine: IL-1a (keratinocytes [4]; [9]): (40%) | Reduces proinflamatory cytokine: IL-6 (keratinocytes [4]; [9]): (20%) and IL-1a | Reduces systemic cytokine GM-CSF (keratinocytes [4]; [9]): GM-CSF (50%) | cytokine level of G-CSF reduced by (keratinocytes [4]; [15]): 70% | cytokine level of IL-1α reduced by (keratinocytes [4]; [15]): 95% | cytokine level of KC reduced by (keratinocytes [4]; [15]): 30 | cytokine level of MIP-2 reduced by (keratinocytes [4]; [15]): 20% | inflammatory cytokine secretion in keratinocytes (keratinocytes [4]; stimulated by LPS or TNFα): significantly decease | Reduces Chemokine: KC (splenocytes; [10]): KC (32%), as | reduces proinflamatory cytokine: IL-1α (splenocytes; [10]): IL-1α (45%), | reduces systemic cytokine: G-SCF (splenocytes; [10]): (40%), | induces antiinflamatory cytokine: IL 10 (splenocytes; Splenocytes, Induction: LPS (1 μg/ml), DAP1 (1 μg/ml)): IL 10 (200%) | Reduces TNFa expression (splenocytes; Splenocytes, Induction: LPS (1 μg/ml), DAP1 (10 μg/ml)): expression (28%). | inflammatory cytokine secretion in splenocytes (splenocytes; stimulated with LPS): significantly decease

Myristoyl-Phe-Ala-Arg-Lys-Gly-Ala-Leu (Myristoyl-FARKGAL) [AIP-2]
cytokine secretion from LPS and TNFα activated keratinocytes (keratinocytes [4]): decrease | cytokine secretion from IL-17A activated keratinocytes (keratinocytes [4]): decrease | cytokine secretion in keratinocytes (keratinocytes [4]; 48 hr): effective in decreasing cytokine secretion

Myristoyl-Thr-Arg-Lys-Arg-Gln-Arg-Ala-Met-Arg-Arg-Arg-Val-His-Gln-Ile-Asn-Gly (Myristoyl-TRKRQRAMRRRVHQING) [MPE-1]
G-CSF (% reduction in secretion) (splenocytes; [13]): 40% | IL-6 (% reduction in secretion) (splenocytes; [13]): 25% | IL-17 (% reduction in secretion) (splenocytes; [13]): 90% | G-CSF (% reduction in secretion) (splenocytes; [14]): 15% | IL-17 (% reduction in secretion) (splenocytes; [14]): 90%

Palmitoyl-Phe-Ala-Arg-Lys-Gly-Ala-Leu-Arg-Gln (Palmitoyl-FARKGALRQ) [PPDY-1]
cytokine secretion in keratinocytes (keratinocytes [4]; 48 hr): effective in decreasing cytokine secretion

Pro-Ala-Trp-His-Asp (PAWHD) [EPIP-3]
Migration, Induces (keratinocytes [1]): (200%) | Differentiation markers: granular differentiation (keratinocytes [2]): Reduces granular | Proliferation markers (PCNA) (keratinocytes [3]): Induces | cytokine secretion, comparison with MPDY-1 (keratinocytes [4]; keratinocytes, IL-17 activation): IL-17: similar effect to MPDY-1 | pro-inflammatory cytokines, chemokines (effect) (keratinocytes [4]; [16]): Reduces pro-inflammatory cytokines, | pro-inflammatory cytokines, chemokines, comparison with MPDY-1 (keratinocytes [4]; [16]): chemokines, better than MPDY-1 upon

TLNPQWES [AIP-1]
cytokine secretion in keratinocytes (keratinocytes [4]; 48 hr): effective in decreasing cytokine secretion
